Test results taken from US20230000876A1, “TREATING CANCERS WITH A CYCLIN-DEPENDENT KINASE INHIBITOR” (Nuvation Bio Inc., priority 2021, published 2023).
Read-outs that look alike come from different tables or passages of the source.

Assays:
U-118MG xenograft tumors = assay: U-118MG glioma subcutaneous xenograft model; assay type: in vivo, female CB17 SCID mice; details: for T/C / TGI / Tumor Size: PG-D27
Procedure: The tumor cells were routinely subcultured twice weekly. The cells growing in an exponential growth phase were harvested and counted for tumor inoculation.
The treatments was started on day 7 after tumor inoculation when the average tumor volume reached 150 mm^3. 60 mice were selected and assigned into 6 groups. The testing articles were administrated to the mice according to Table 1.
Tumor size was measured twice weekly in two dimensions using a caliper, and the volume was expressed in mm^3 using the formula: V=0.5 a×b^2 where a and b are the long and short diameters of the tumor, respectively. The tumor sizes are then used for the calculation of T/C and TGI values.
The T/C value (in percent) is an indication of antitumor effectiveness; T and C are the mean volume of the treated and control groups, respectively, on a given day.
TGI was calculated for each group using the formula: TGI (%)=[1−(Ti−T0)/(Vi−V0)]×100; Ti is the average tumor volume of a treatment group on PG-D28 T0 is the average tumor volume of the treatment group on the day of treatment start, Vi is the average tumor volume of the vehicle control group on the same day with Ti, and V0 is the average tumor volume of the vehicle group on the day of treatment start.
All Groups were taken down on PG-D28, tumor, plasma and brain samples were collected.
For statistical analysis for difference among groups 2-6 and group 1, a one-way ANOVA was performed. All the analysis were conducted using GraphPad Prism software. p<0.05 was considered to be statistically significant.

[1] = Pharmacokinetics and brain distribution after single oral dose, mice; assay type: in vivo, male CD1 mice
Procedure: The pharmacokinetics and brain distribution in maleCD1 mice and Sprague-Dawley rats following a single oral (PO) dose was evaluated. The compound of formula (I) was administered once at 10 mg/kg to mice and at 1, 10, 30, and 100 mg/kg to rats. All doses, compound of formula (I) concentrations, and derived PK parameters are expressed as the free base of the compound of formula (I).
The in-life portion of these studies was performed by Alliance Pharma (Malvern, Pa.) according to Protocols 200107-02 (mice) and 1910158-02 (rats). Animals were assigned randomly to the dose groups and were fasted 12 hours prior to dosing. Water was available ad libitum. The compound of formula (I) (as an HCl salt) was given to male CD1 mice at 10 mg/kg single PO dose, while in Sprague-Dawley rats, the doses were 1, 10, 30, and 100 mg/kg. In both studies, the compound of formula (I) was formulated in 0.5% hydroxypropyl methylcellulose (HPMC)/0.2% Tween 80 and the dosing volume was 5 mL/kg for all dose groups.
Whole blood was collected at 2, 4, 6, and 12 hours post dose from mice and predose and 1, 2, 4, 8, 12, and 24 hours post dose from rats into tubes containing dipotassium ethylenediaminetetraacetic acid (K2EDTA). Blood was obtained from 3 mice and 4 rats per time-point per dose level. The blood samples were processed into plasma analyzed at Alliance Pharma using the method as described below.
The brain tissue was collected from mice at 2, 4, 6, and 12 hours post dose and was collected from rats at 6 hours post dose given 1, 10, 30, or 100 mg/kg of the compound of formula (I). Brain tissue was obtained from 3 mice per time-point at the 10 mg/kg dose level and 4 rats per dose level at the 6-hour post dose time-point.
Brain tissue was rinsed by phosphate-buffered saline (PBS) buffer immediately after harvest, weighed, and mixed with solvent (MeOH:H2O [volume over volume of 20:80]) with a ratio of tissue to solvent of 1:4 (weight over volume). […] After homogenization, the homogenate was aliquoted out for sample analysis.
The concentrations of the compound of formula (I) in the plasma and brain homogenate were determined versus a calibration curve prepared in plasma and naïve brain homogenate, respectively. Samples were deproteinized with acetonitrile containing tolbutamide as internal standard. After centrifugation, the supernatants were analyzed by liquid chromatography with tandem mass spectrometry (LC-MS/MS). Chromatography was performed with a Zorbax SB-C18 (50×2.1 mm, […]) column under gradient conditions described in Table 22. Mobile Phase A (0.1% formic acid [FA] in water) and Mobile Phase B (0.1% FA in acetonitrile) were delivered as a flow rate of 0.8 mL/min. LC-MS/MS was performed using a positive TurboIonSpray® interface on a SciexAPI 4000 and multiple-reaction monitoring (MRM) over a concentration range of 1 ng/mL to 1000 (rats) or 2000 (mice) ng/mL for the plasma and brain homogenate samples.
The mean plasma concentration-time data of the compound of formula (I) was used to determine the pharmacokineticparameters by standard noncompartmental methods using Phoenix® WinNonlin (version 8.2.0; Certara, Princeton, N.J.). Graphs were plotted in Prism® (version 2.3.0; GraphPad, San Diego, Calif.). Concentrations were rounded to 3 significant figures.

[2] = Group 2: Compound (I) 10 mg/kg PO, QD
[3] = Group 3: Compound (I) 30 mg/kg PO, QD
[4] = Group 4: Compound (I) 60 mg/kg PO, QD
[5] = Group 5: Compound (I) 60 mg/kg PO, QOD

In the case of CC(C)N1CCOc2c(F)cc(-c3nc(Nc4ccc(C5CCN(C)CC5)cn4)ncc3F)cc21 [Compound (I), 5-fluoro-4-(8-fluoro-4-isopropyl-3,4-dihydro-2H-benzo[b][1,4]oxazin-6-yl)-N-(5-(1-methylpiperidin-4-yl)pyridin-2-yl)pyrimidin-2-amine], the “Tumor volume (mean ± SEM)” value (U-118MG xenograft tumors; 10 mg/kg PO QD, day 0) is reported as 154 ± 12 mm^3, the “Tumor volume (mean ± SEM)” value (U-118MG xenograft tumors; 10 mg/kg PO QD, day 3) is reported as 238 ± 16 mm^3 and the “Tumor volume (mean ± SEM)” value (U-118MG xenograft tumors; 10 mg/kg PO QD, day 7) is reported as 277 ± 20 mm^3. For the same compound, the “Tumor volume (mean ± SEM)” value (U-118MG xenograft tumors; 10 mg/kg PO QD, day 10) was 291 ± 28 mm^3, the “Tumor volume (mean ± SEM)” value (U-118MG xenograft tumors; 10 mg/kg PO QD, day 14) was 275 ± 28 mm^3 and the “Tumor volume (mean ± SEM)” value (U-118MG xenograft tumors; 10 mg/kg PO QD, day 17) was 281 ± 34 mm^3. For the same compound, the “Tumor volume (mean ± SEM)” value (U-118MG xenograft tumors; 10 mg/kg PO QD, day 21) was 269 ± 43 mm^3, the “Tumor volume (mean ± SEM)” value (U-118MG xenograft tumors; 10 mg/kg PO QD, day 24) was 270 ± 40 mm^3 and the “Tumor volume (mean ± SEM)” value (U-118MG xenograft tumors; 10 mg/kg PO QD, day 28) was 273 ± 39 mm^3. For the same compound, the “Tumor volume (mean ± SEM)” value (U-118MG xenograft tumors; 30 mg/kg PO QD, day 0) was 155 ± 11 mm^3, the “Tumor volume (mean ± SEM)” value (U-118MG xenograft tumors; 30 mg/kg PO QD, day 3) was 237 ± 22 mm^3 and the “Tumor volume (mean ± SEM)” value (U-118MG xenograft tumors; 30 mg/kg PO QD, day 7) was 273 ± 26 mm^3. The “Tumor volume (mean ± SEM)” value (U-118MG xenograft tumors; 30 mg/kg PO QD, day 10) was 241 ± 25 mm^3, the “Tumor volume (mean ± SEM)” value (U-118MG xenograft tumors; 30 mg/kg PO QD, day 14) was 230 ± 19 mm^3 and the “Tumor volume (mean ± SEM)” value (U-118MG xenograft tumors; 30 mg/kg PO QD, day 17) was 214 ± 16 mm^3. For the same compound, the “Tumor volume (mean ± SEM)” value (U-118MG xenograft tumors; 30 mg/kg PO QD, day 21) was 193 ± 17 mm^3, the “Tumor volume (mean ± SEM)” value (U-118MG xenograft tumors; 30 mg/kg PO QD, day 24) was 174 ± 19 mm^3 and the “Tumor volume (mean ± SEM)” value (U-118MG xenograft tumors; 30 mg/kg PO QD, day 28) was 172 ± 18 mm^3. For the same compound, the “Tumor volume (mean ± SEM)” value (U-118MG xenograft tumors; 60 mg/kg PO QD, day 0) was 156 ± 12 mm^3, the “Tumor volume (mean ± SEM)” value (U-118MG xenograft tumors; 60 mg/kg PO QD, day 3) was 220 ± 17 mm^3 and the “Tumor volume (mean ± SEM)” value (U-118MG xenograft tumors; 60 mg/kg PO QD, day 7) was 264 ± 14 mm^3. For the same compound, the “Tumor volume (mean ± SEM)” value (U-118MG xenograft tumors; 60 mg/kg PO QD, day 10) was 227 ± 10 mm^3, the “Tumor volume (mean ± SEM)” value (U-118MG xenograft tumors; 60 mg/kg PO QD, day 14) was 202 ± 10 mm^3 and the “Tumor volume (mean ± SEM)” value (U-118MG xenograft tumors; 60 mg/kg PO QD, day 17) was 174 ± 12 mm^3. For the same compound, the “Tumor volume (mean ± SEM)” value (U-118MG xenograft tumors; 60 mg/kg PO QD, day 21) was 160 ± 10 mm^3, the “Tumor volume (mean ± SEM)” value (U-118MG xenograft tumors; 60 mg/kg PO QD, day 24) was 156 ± 8 mm^3 and the “Tumor volume (mean ± SEM)” value (U-118MG xenograft tumors; 60 mg/kg PO QD, day 28) was 156 ± 8 mm^3. For the same compound, the “Tumor volume (mean ± SEM)” value (U-118MG xenograft tumors; 60 mg/kg PO QOD, day 0) was 154 ± 11 mm^3, the “Tumor volume (mean ± SEM)” value (U-118MG xenograft tumors; 60 mg/kg PO QOD, day 3) was 233 ± 20 mm^3 and the “Tumor volume (mean ± SEM)” value (U-118MG xenograft tumors; 60 mg/kg PO QOD, day 7) was 304 ± 27 mm^3. The “Tumor volume (mean ± SEM)” value (U-118MG xenograft tumors; 60 mg/kg PO QOD, day 10) was 273 ± 28 mm^3, the “Tumor volume (mean ± SEM)” value (U-118MG xenograft tumors; 60 mg/kg PO QOD, day 14) was 234 ± 22 mm^3 and the “Tumor volume (mean ± SEM)” value (U-118MG xenograft tumors; 60 mg/kg PO QOD, day 17) was 215 ± 22 mm^3. The “Tumor volume (mean ± SEM)” value (U-118MG xenograft tumors; 60 mg/kg PO QOD, day 21) was 193 ± 20 mm^3, the “Tumor volume (mean ± SEM)” value (U-118MG xenograft tumors; 60 mg/kg PO QOD, day 24) was 183 ± 21 mm^3 and the “Tumor volume (mean ± SEM)” value (U-118MG xenograft tumors; 60 mg/kg PO QOD, day 28) was 177 ± 22 mm^3. The T/C (U-118MG xenograft tumors; [2]) was 43.20%, the TGI (U-118MG xenograft tumors; [2]) was 75.08% and the “Tumor Size” value (U-118MG xenograft tumors; [2]) was 273 ± 39 mm^3. For the same compound, the T/C (U-118MG xenograft tumors; [3]) was 27.32%, the “Tumor Size” value (U-118MG xenograft tumors; [3]) was 172 ± 18 mm^3 and the T/C (U-118MG xenograft tumors; [4]) was 24.64%. The TGI (U-118MG xenograft tumors; [4]) was 100.03%, the “Tumor Size” value (U-118MG xenograft tumors; [4]) was 156 ± 8 mm^3 and the T/C (U-118MG xenograft tumors; [5]) was 28.09%. The TGI (U-118MG xenograft tumors; [5]) was 95.14%, the “Tumor Size” value (U-118MG xenograft tumors; [5]) was 177 ± 22 mm^3 and the “Antitumor activity relative to the control group” value (U-118MG xenograft tumors; mouse, in vivo) was “dose-dependent and statistically significant antitumor activity”. For the same compound, the “Effect of 30 mg/kg QD compared with 60 mg/kg QOD” value (U-118MG xenograft tumors; mouse, in vivo) was “similar”, the “Half-life in brain versus plasma” value ([1]; in vivo animal models, oral administration) was “longer half-life in the brain than in the plasma” and the Kp at 2 h ([1]; male, CD1, mouse, brain, po, 10 mg/kg, mice, single PO 10 mg/kg, 2 h, read-out: Brain:Plasma Ratio, mean (SD)) was 1.7. For the same compound, the Kp at 4 h ([1]; male, CD1, mouse, brain, po, 10 mg/kg, mice, single PO 10 mg/kg, 4 h, read-out: Brain:Plasma Ratio, mean (SD)) was 2.1, the Kp at 6 h ([1]; male, CD1, mouse, brain, po, 10 mg/kg, mice, single PO 10 mg/kg, 6 h, read-out: Brain:Plasma Ratio, mean (SD)) was 1.9 and the Kp at 12 h ([1]; male, CD1, mouse, brain, po, 10 mg/kg, mice, single PO 10 mg/kg, 12 h, read-out: Brain:Plasma Ratio, mean (SD)) was 3.3. For the same compound, the Kp at 12 h ([1]; male, CD1, mouse, brain, po, 10 mg/kg, mice, single PO 10 mg/kg, at 2, 4, 6, and 12 hours post-dose, read-out: Brain-to-plasma concentration ratio) was over 1.5, the concentration at 2 h ([1]; male, CD1, mouse, brain, mice, single PO 10 mg/kg, 2 h, read-out: Brain Conc) was 309 ng/mL and the concentration at 4 h ([1]; male, CD1, mouse, brain, mice, single PO 10 mg/kg, 4 h, read-out: Brain Conc) was 436 ng/mL. It also gave a concentration at 6 h ([1]; male, CD1, mouse, brain, mice, single PO 10 mg/kg, 6 h, read-out: Brain Conc) of 464 ng/mL, a concentration at 12 h ([1]; male, CD1, mouse, brain, mice, single PO 10 mg/kg, 12 h, read-out: Brain Conc) of 345 ng/mL and a concentration at 2 h ([1]; male, CD1, mouse, plasma, mice, single PO 10 mg/kg, 2 h, read-out: Plasma Conc) of 187 ng/mL. It also gave a concentration at 4 h ([1]; male, CD1, mouse, plasma, mice, single PO 10 mg/kg, 4 h, read-out: Plasma Conc) of 209 ng/mL, a concentration at 6 h ([1]; male, CD1, mouse, plasma, mice, single PO 10 mg/kg, 6 h, read-out: Plasma Conc) of 247 ng/mL and a concentration at 12 h ([1]; male, CD1, mouse, plasma, mice, single PO 10 mg/kg, 12 h, read-out: Plasma Conc) of 105 ng/mL.
